Seven compounds from article PMC5342446, “Healthy CD4^+ T lymphocytes are not affected by targeted therapies against the PI3K/Akt/mTOR pathway in T-cell acute lymphoblastic leukemia” (Oncotarget, 2016) can be followed below.

Structures are written as SMILES. Residues, ends and D or L forms follow the SMILES beside them. *: point of attachment. Cbz = O=C(OCc1ccccc1)*; CH2F = FC*

In assay [1] the test system is stimulated T lymphocytes. Nature of the assay: MTT cell viability assay, stimulated (phytohemagglutinin) CD4+ T lymphocytes. The format is cell-based, human. Conditions: for effect on cell viability, alone: 24 h; for IC50: Homo sapiens, T-lymphocyte, 48 h, read-out: IC50 values of cells treated for 48 hours. How it is done:
(§1) To determine how these inhibitors could affect the viability of the primary CD4^+ T lymphocytes (both unstimulated and stimulated) and T-ALL cells, we performed MTT assays. […] Except for the unstimulated T lymphocytes, BGT226 and the mTORC1/2 inhibitor Torin-2 turned out to be the most powerful drugs in these cells. For unstimulated T lymphocytes, there was no relevant inhibition for both drugs (IC50 > 2 μM).
(§2) Peripheral Blood CD4+ T lymphocytes from healthy donors were obtained with informed consent according to institutional guidelines and isolated with Ficoll-Paque and magnetic beads labelling protocols (Dynabeads, Monza MI, Italy). Whole blood or buffy coat were diluted with PBS containing 0.1% BSA and 0.6% Na-citrate or 2 mM EDTA (without Ca2+ and Mg2+) in ratio 1:1. Thirty-five ml of the diluted sample were layered over 15 ml of Ficoll-Paque medium and centrifuged at 600 g for 40 minutes at 20°C. The peripheral blood mononuclear cell (PMNC) layer was transferred to centrifuge tube containing three volumes of PBS and centrifuged at 100 g for 10 minutes at 20°C. This step was repeated twice, supernatant was discarded and cells were suspended in complete RPMI-1640 medium.
(§3) 500 μl PMNC were transferred into a test tube, at a density of 5 × 10^7 cells/ml supplemented with100 μl of heat inactivated FBS and antibody mix and incubated at 4°C for 20 minutes. Followed by addition of 4 ml isolation buffer and centrifuged at 350 g at 4°C for 8 minutes. The supernatant discarded, and the pelleted cells were suspended in 500 μl of isolation buffer, added with 500 μl of pre-warmed dynabeads and incubated for 15 min at 20°C. The cells bound to beads were resuspended using 4 ml isolation buffer. The supernatant containing the human CD4^+ T lymphocytes was obtained by placing the resuspended cells in magnet for 2 minutes. The human CD4^+ T lymphocytes were grown in complete RPMI-1640 medium with 10μg/ml phytohemagglutinin at a density of 1 × 10^6 cells/ml, in a CO2 incubator at 37°C for 24 h.
(§4) MTT (3-[4,5-Dimethylthythiazol-2-yl]-2,5-Diphenyltetrazolium Bromide) assays were performed to assess the sensitivity of cells to drugs, as described.

For assay [2], the system named is JURKAT cells. Nature of the assay: MTT cell viability assay, JURKAT. The format is cell-based, human. Conditions: for effect on cell viability, alone: 24 h; for IC50: Homo sapiens, 48 h, read-out: IC50 values of cells treated for 48 hours. How it is done: as §1
(§5) T-acute lymphoblastic leukemia cell lines obtained from Deutsche Sammlung von Mikroorganismen und Zellkulturen GmbH (Braunschweig, Germany). JURKAT and MOLT-4 were maintained in RPMI-1640 medium supplemented with 10% heat-inactivated fetal bovine serum (FBS), 100 units/ml penicillin and […] streptomycin at a density of 0.5 to 2 × 10^6 cells/ml and were incubated at 37°C with 5% CO2.
as §4

Assay [3] has as its system unstimulated T lymphocytes. Kind of assay: MTT cell viability assay, unstimulated CD4+ T lymphocytes. The format is cell-based. Conditions: Homo sapiens, T-lymphocyte, 48 h, read-out: IC50 values of cells treated for 48 hours. Here is the method:
To determine how these inhibitors could affect the viability of the primary CD4^+ T lymphocytes (both unstimulated and stimulated) and T-ALL cells, we performed MTT assays. Cells were incubated for 48 h with the inhibitors, and then cell survival was analyzed (Figure 2A and Table 1). Except for the unstimulated T lymphocytes, BGT226 and the mTORC1/2 inhibitor Torin-2 turned out to be the most powerful drugs in these cells. For unstimulated T lymphocytes, there was no relevant inhibition for both drugs (IC50 > 2 μM).
as §2, §3, §4

For assay [4], the system named is MOLT-4 cells. Kind of assay: MTT cell viability assay, MOLT-4. Conditions: for IC50: Homo sapiens, MOLT-4, MTT, 48 h, read-out: IC50 values of cells treated for 48 hours. Format: cell-based, human. Here is the method:
as §1, §5, §4

For the compound `Cn1cnc(N)c2ncnc1-2` [3-MA, 3-Methyladenine], the “effect on cell viability, alone” value in assay [1] (even at 10 μM) and in assay [2] (even at 10 μM) was “did not affect cell viability” in each case.
Turning to `COc1ccc(-c2ccc3ncc4c(c3c2)n(-c2ccc(N3CCNCC3)c(C(F)(F)F)c2)c(=O)n4C)cn1` [BGT226], the IC50 was 1.61 µM in assay [1], 0.08 µM in assay [2], more than 2 µM in assay [3] and 0.06 µM in assay [4].
`CO/C1=C\C(C)=C\[C@@H](C)[C@@H](O)[C@@H](C)C/C(C)=C/C=C/[C@H](OC)[C@@H]([C@@H](C)[C@@H](O)[C@H](C)[C@@]2(O)C[C@@H](O)[C@H](C)[C@@H](C(C)C)O2)OC1=O` [Bafilomycin A1]: the “effect on cell viability, alone” value in assay [1] (even at 4 μM) and in assay [2] (even at 4 μM) was “did not affect cell viability” throughout.
As to `NC1(c2ccc(-c3nc4ccn5c(=O)[nH]nc5c4cc3-c3ccccc3)cc2)CCC1` [MK-2206], the IC50 in assay [1] is more than 2 µM; in assay [2] it was more than 2 µM; in assay [3] it was more than 2 µM; in assay [4] it was 1.58 µM.
Turning to `Nc1ccc(-c2ccc3ncc4ccc(=O)n(-c5cccc(C(F)(F)F)c5)c4c3c2)cn1` [Torin-2, 9-(6-aminopyridin-3-yl)-1-(3-(trifluoromethyl)phenyl)benzo[h][1,6]naphthyridin-2(1H)-one], the IC50 in assay [1] is 1.8 µM; in assay [2] it was 0.1 µM; in assay [3], more than 2 µM; in assay [4], 0.1 µM.
For `FC(F)c1nc2ccccc2n1-c1nc(N2CCOCC2)nc(N2CCOCC2)n1` [ZSTK474], the IC50 in assay [1] was more than 2 µM; in assay [2], 0.95 µM; in assay [3], more than 2 µM; in assay [4], 0.52 µM.
Turning to `COC(=O)C[C@H](NC(=O)[C@H](C)NC(=O)[C@@H](NC(=O)OCc1ccccc1)C(C)C)C(=O)CF` [z-VAD-fmk] (Cbz-Val-Ala-Asp(OMe)-CH2F), the “effect on cell viability, alone” value in assay [1] (25 μM) is listed as “no relevant effect on cell viability”; in assay [4] (MOLT-4, alone, 25 μM, 24 h, MTT) it was “no relevant effect on cell viability”.
